SMILES strings stand for the structures. “Also recorded” adds a separate entry of the source.

Common to all, as to assay type: in vivo, human
One data set has as its system secondary CNS lymphoma. Put plainly: illustrative treatment of first patient (large-B cell lymphoma, CNS relapse), MRI follow-up. To be noted: for severe treatment-related toxicities requiring inpatient management: earlier therapies. From the text: Staging documented concomitant right adrenal involvement. Treatment at an outside institution consisted of six cycles of high-dose methotrexate (HD-MTX) intercalated with rituximab, cyclophosphamide, adriamycin, vincristine, prednisone (R-CHOP) plus intrathecal cytarabine, also six cycles. At 7 months there was multifocal CNS progression and the patient was transferred to a tertiary care center where they received eight cycles of HD-MTX, six doses of temozolomide plus rituximab (MTR), consolidation with etoposide-ara-C (Soussain et al, J. Clin. Oncol 19:[…]; Rubenstein et al, J. Clin Oncol. 31:3061-8, 2013) followed by autologous stem cell transplantation and lenalidomide maintenance. However, at 6 months after transplantation, multifocal CNS progression was again evident on magnetic resonance imaging (MRI). This second relapse was treated with repeat HD-MTX (eight cycles) plus rituximab followed by focal irradiation to a refractory lesion in the right postcentral gyrus, followed by pomalidomide maintenance, resulting in a CNS response duration of nearly 2 years. A third isolated CNS relapse manifested by new multifocal lesions with mild left-to-right midline shift.
Ibrutinib was therefore discontinued and the patient continued on lenalidomide (10 mg/day), now co-administered with intravenous tafasitamab (12 mg/kg), without dexamethasone, following the schedule of the L-MIND study. […] The patient continues twice monthly infusion of tafasitamab, plus lenalidomide days 1-21, and remains in radiographic remission, both in brain and systemically, at 22 months since starting this combination.

Another data set has as its system primary CNS lymphoma. Put plainly: illustrative treatment of second patient (multifocal primary CNS lymphoma, large B-cell type), MRI follow-up. As to the method:
At first relapse they were re-treated with MTR followed by lenalidomide maintenance (5 mg/day) with intermittent high-dose methotrexate/rituximab every 4 months, resulting in sustained disease control on MRI for 3 years. At progression on lenalidomide they were re-challenged with MTR but immediately experienced growth of new lesions in the left frontal lobe, centrum semiovale and splenium of the corpus callosum. […] However, the corpus callosal lesion was resistant. […] (For image, see, Rauschecker et al., Br J Haematol, 201:154-157, first published January 23 2023).

The next data set relates to relapsed CNS lymphoma. Description: phase I trial of tafasitamab plus lenalidomide in relapsed CNS lymphoma (NCT05351593). To be noted: Patient 2; lenalidomide 15 mg/day, off study. As for the experimental part:
This patient's disease previously progressed on lenalidomide monotherapy at a higher dose of 15 mg/day.
The role of tafasitamab in these cases is evident based on prior resistance to lenalidomide, pomalidomide and rituximab.
Three were treated at the 10 mg lenalidomide dose level and one at the 15 mg lenalidomide dose level. […] The longest response duration was six months.
Illustrative responses of patient 2 in this study are depicted in FIG. 1.

`C=CC(=O)N1CCC[C@@H](n2nc(-c3ccc(Oc4ccccc4)cc3)c3c(N)ncnc32)C1` [ibrutinib]: the “severe treatment-related toxicities requiring inpatient management” value in the data set with secondary CNS lymphoma is “pancytopenia, gastrointestinal bleeding, and necrotizing gangrenous cholecystitis”.

For `Nc1cccc2c1CN(C1CCC(=O)NC1=O)C2=O` (stereo not shown) [lenalidomide], the “sustained disease control on MRI” value in the data set on primary CNS lymphoma (first relapse, MTR then lenalidomide maintenance 5 mg/day with intermittent high-dose methotrexate/rituximab every 4 months) turned out to be 3 years. In the data set with primary CNS lymphoma (lenalidomide maintenance 5 mg/day, days 1-21, after complete response with MTR), this compound had a response duration of 17 months. Moreover, in the data set with secondary CNS lymphoma (lenalidomide maintenance after autologous stem cell transplantation), the “time to multifocal CNS progression on MRI after transplantation” value worked out at 6 months. For the same compound, the “disease response to earlier lenalidomide monotherapy” value in the data set on relapsed CNS lymphoma is given as “progressed; also recorded: refractory”.

As to `Nc1cccc2c1C(=O)N(C1CCC(=O)NC1=O)C2=O` (stereo not shown) [pomalidomide], in the data set with secondary CNS lymphoma, the “severe treatment-related toxicities requiring inpatient management” value was “two independent episodes of pneumonia, associated with respiratory syncytial virus and later, aspergillosis”. Besides, in the data set on secondary CNS lymphoma (pomalidomide maintenance after repeat HD-MTX plus rituximab and focal irradiation), the CNS response duration was approximately 2 years.

Source of the values: patent publication US20240360215A1, “ANTI-CD19 ANTIBODY IN THE TREATMENT OF CNS LYMPHOMA” (The Regents of the University of California, priority 2023, published 2024).
